In this assay the target is T1, CK1α (Homo sapiens, UniProt P48729+Q96SW2).
T1 construct: expressed in transfected cells
Kind of assay: CK1α ePL degradation assay in MDS-L cells. The assay is classed as cell-based. The conditions noted are these: MDS-L cells expressing ePL-tagged CK1α; for DC50: concentration giving 50% CK1α degradation vs DMSO control; for Y: lowest measured CK1α level normalized to DMSO control. Put shortly:
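Degradation efficiency is reported as Y value, the minimum CK1α level (percent of DMSO control) across doses. Readout used InCELL Hunter luminescent detection after MDS-L cell exposure at 37° C for stated times, doses 10 μM down to 0.0005 μM in 3-fold steps.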

T1 sequence (P48729 whole entry): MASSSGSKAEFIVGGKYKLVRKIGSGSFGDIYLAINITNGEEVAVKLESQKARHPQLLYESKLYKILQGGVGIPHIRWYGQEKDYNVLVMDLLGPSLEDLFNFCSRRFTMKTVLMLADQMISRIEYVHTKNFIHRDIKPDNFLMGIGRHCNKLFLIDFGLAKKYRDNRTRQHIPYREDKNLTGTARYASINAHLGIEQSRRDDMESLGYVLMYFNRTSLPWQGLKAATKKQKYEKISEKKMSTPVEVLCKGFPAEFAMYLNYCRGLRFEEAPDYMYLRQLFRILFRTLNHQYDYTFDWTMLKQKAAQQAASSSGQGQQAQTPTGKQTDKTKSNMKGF
T1 sequence (Q96SW2 whole entry): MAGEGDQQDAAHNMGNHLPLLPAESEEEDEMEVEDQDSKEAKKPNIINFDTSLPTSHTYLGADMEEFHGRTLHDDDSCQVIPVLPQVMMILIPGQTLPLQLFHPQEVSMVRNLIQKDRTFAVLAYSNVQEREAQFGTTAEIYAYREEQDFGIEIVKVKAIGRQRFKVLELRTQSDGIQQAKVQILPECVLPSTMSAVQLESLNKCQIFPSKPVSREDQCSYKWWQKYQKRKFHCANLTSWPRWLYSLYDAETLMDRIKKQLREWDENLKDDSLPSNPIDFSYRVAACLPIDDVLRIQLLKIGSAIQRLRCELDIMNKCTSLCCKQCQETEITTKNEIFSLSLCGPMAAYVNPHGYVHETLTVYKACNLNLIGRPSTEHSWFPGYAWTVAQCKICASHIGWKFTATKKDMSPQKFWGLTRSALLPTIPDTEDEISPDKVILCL
T1 sequence (Q16531 whole entry partner): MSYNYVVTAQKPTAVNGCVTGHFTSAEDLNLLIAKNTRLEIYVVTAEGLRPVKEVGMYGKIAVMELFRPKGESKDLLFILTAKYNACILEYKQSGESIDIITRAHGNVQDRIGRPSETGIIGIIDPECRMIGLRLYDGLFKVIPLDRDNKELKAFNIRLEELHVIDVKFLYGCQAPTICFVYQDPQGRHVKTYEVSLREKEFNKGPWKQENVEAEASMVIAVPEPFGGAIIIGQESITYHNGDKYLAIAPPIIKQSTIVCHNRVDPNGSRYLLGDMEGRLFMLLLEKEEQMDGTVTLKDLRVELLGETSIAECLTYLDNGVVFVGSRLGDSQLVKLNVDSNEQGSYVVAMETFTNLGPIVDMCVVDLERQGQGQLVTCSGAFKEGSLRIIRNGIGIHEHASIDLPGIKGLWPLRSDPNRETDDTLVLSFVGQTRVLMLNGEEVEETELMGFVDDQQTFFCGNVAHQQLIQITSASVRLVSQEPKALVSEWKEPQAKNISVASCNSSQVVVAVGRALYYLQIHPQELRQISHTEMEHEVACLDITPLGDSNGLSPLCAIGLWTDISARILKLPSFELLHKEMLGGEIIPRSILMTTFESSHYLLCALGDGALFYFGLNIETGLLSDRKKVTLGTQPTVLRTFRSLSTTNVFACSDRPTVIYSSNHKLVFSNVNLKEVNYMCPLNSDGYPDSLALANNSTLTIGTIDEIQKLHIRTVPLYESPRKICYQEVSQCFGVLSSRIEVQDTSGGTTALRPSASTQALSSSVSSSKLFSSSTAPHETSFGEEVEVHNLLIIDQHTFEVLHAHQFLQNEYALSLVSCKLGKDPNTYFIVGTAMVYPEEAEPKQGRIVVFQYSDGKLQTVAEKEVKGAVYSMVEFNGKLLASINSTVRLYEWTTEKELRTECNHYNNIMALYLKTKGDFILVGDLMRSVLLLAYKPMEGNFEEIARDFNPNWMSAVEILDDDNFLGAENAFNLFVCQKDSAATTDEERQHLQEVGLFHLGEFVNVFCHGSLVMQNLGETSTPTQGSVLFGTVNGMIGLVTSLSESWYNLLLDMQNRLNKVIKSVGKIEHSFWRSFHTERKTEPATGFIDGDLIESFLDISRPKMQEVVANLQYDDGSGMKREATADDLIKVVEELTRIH

Turning to `O=C1CCC(N2Cc3c(ccc(C(=O)N[C@H](c4ncccc4Cl)C(F)(F)F)c3F)C2=O)C(=O)N1` (stereo partly drawn) [Example 139, N-((R)-1-(3-chloropyridin-2-yl)-2,2,2-trifluoroethyl)-2-(2,6-dioxopiperidin-3-yl)-4-fluoro-1-oxoisoindoline-5-carboxamide], the DC50 is less than 100 nM and the Y result was “* (a Y value (shown as *) of 0<Y≤20%)”.

On to `O=C1CCC(N2Cc3cc(C(=O)N[C@H](c4cccc(CN5CCOCC5)c4)C(F)(F)F)ccc3C2=O)C(=O)N1` (stereo partly drawn) [Example 140, 2-(2,6-dioxopiperidin-3-yl)-1-oxo-N-((R)-2,2,2-trifluoro-1-(3-(morpholinomethyl)phenyl)ethyl)isoindoline-5-carboxamide], for which the DC50 is less than 100 nM and the Y entry is reported as “* (a Y value (shown as *) of 0<Y≤20%)”.

For the compound `CN(C)Cc1ccc([C@@H](NC(=O)c2ccc3c(c2)CN(C2CCC(=O)NC2=O)C3=O)C(F)(F)F)cc1` (stereo partly drawn) [Example 141, N-((R)-1-(4-((dimethylamino)methyl)phenyl)-2,2,2-trifluoroethyl)-2-(2,6-dioxopiperidin-3-yl)-1-oxoisoindoline-5-carboxamide], the DC50 is less than 100 nM and the Y entry is “* (a Y value (shown as *) of 0<Y≤20%)”.

Regarding `O=C1CCC(N2Cc3cc(C(=O)N[C@H](c4ccc(CN5CCOCC5)cc4)C(F)(F)F)ccc3C2=O)C(=O)N1` (stereo partly drawn) [Example 142, 2-(2,6-dioxopiperidin-3-yl)-1-oxo-N-((R)-2,2,2-trifluoro-1-(4-(morpholinomethyl)phenyl)ethyl)isoindoline-5-carboxamide], the DC50 was less than 100 nM and the Y entry is “* (a Y value (shown as *) of 0<Y≤20%)”.

Regarding `O=C1CCC(N2Cc3cc(C(=O)N[C@H](C4CCN(CC(F)(F)F)CC4)C(F)(F)F)ccc3C2=O)C(=O)N1` (stereo partly drawn) [Example 143, 2-(2,6-dioxopiperidin-3-yl)-1-oxo-N-((R)-2,2,2-trifluoro-1-(1-(2,2,2-trifluoroethyl)piperidin-4-yl)ethyl)isoindoline-5-carboxamide], the DC50 is 100 to 500 nM and the Y entry is “* (a Y value (shown as *) of 0<Y≤20%)”.

On to `Cc1ccc([C@@H](NC(=O)c2ccc3c(c2F)CN(C2CCC(=O)NC2=O)C3=O)C(F)(F)F)cc1` (stereo partly drawn) [Example 144, 2-(2,6-dioxopiperidin-3-yl)-4-fluoro-1-oxo-N-((R)-2,2,2-trifluoro-1-p-tolylethyl)isoindoline-5-carboxamide], for which the DC50 lay in the range of 100 to 500 nM and the Y result is “* (a Y value (shown as *) of 0<Y≤20%)”.

For the compound `O=C1CCC(N2Cc3c(ccc(C(=O)N[C@H](c4ccc(F)cc4Cl)C(F)(F)F)c3F)C2=O)C(=O)N1` (stereo partly drawn) [Example 145, N-((R)-1-(2-chloro-4-fluorophenyl)-2,2,2-trifluoroethyl)-2-(2,6-dioxopiperidin-3-yl)-4-fluoro-1-oxoisoindoline-5-carboxamide], the DC50 is less than 100 nM and the Y result is “* (a Y value (shown as *) of 0<Y≤20%)”.

Turning to `O=C1CCC(N2Cc3c(ccc(C(=O)N[C@@H](CC(F)(F)F)c4cccc(F)c4)c3F)C2=O)C(=O)N1` (stereo partly drawn) [Example 146, 2-(2,6-dioxopiperidin-3-yl)-4-fluoro-1-oxo-N-((S)-3,3,3-trifluoro-1-(3-fluorophenyl)propyl)isoindoline-5-carboxamide], the DC50 was in the range of 100 to 500 nM and the Y result was “** (a Y value (shown as**) of 20%<Y≤35%)”.

For `O=C1CCC(N2Cc3cc(C(=O)N[C@H](c4ccc(Oc5ccccc5)cc4)C(F)(F)F)ccc3C2=O)C(=O)N1` (stereo partly drawn) [Example 147, 2-(2,6-dioxopiperidin-3-yl)-1-oxo-N-((R)-2,2,2-trifluoro-1-(4-phenoxyphenyl)ethyl)isoindoline-5-carboxamide], the DC50 lay in the range of 100 to 500 nM and the Y entry is “** (a Y value (shown as**) of 20%<Y≤35%)”.

`O=C1CCC(N2Cc3cc(C(=O)N[C@H](c4ccc(OC5CC5)cc4)C(F)(F)F)ccc3C2=O)C(=O)N1` (stereo partly drawn) [Example 148, N-((R)-1-(4-cyclopropoxyphenyl)-2,2,2-trifluoroethyl)-2-(2,6-dioxopiperidin-3-yl)-1-oxoisoindoline-5-carboxamide]: the DC50 was less than 100 nM and the Y entry was “* (a Y value (shown as *) of 0<Y≤20%)”.

Take `O=C1CCC(N2Cc3cc(C(=O)N[C@@H](CC(F)(F)F)c4ccc(Cl)cc4)ccc3C2=O)C(=O)N1` (stereo partly drawn) [Example 149, N-((S)-1-(4-chlorophenyl)-3,3,3-trifluoropropyl)-2-(2,6-dioxopiperidin-3-yl)-1-oxoisoindoline-5-carboxamide]: the DC50 lay within 500 to 1000 nM and the Y entry was “** (a Y value (shown as**) of 20%<Y≤35%)”.

On to `CN(C)Cc1cccc([C@@H](NC(=O)c2ccc3c(c2)CN(C2CCC(=O)NC2=O)C3=O)C(F)(F)F)c1` (stereo partly drawn) [Example 150, N-((R)-1-(3-((dimethylamino)methyl)phenyl)-2,2,2-trifluoroethyl)-2-(2,6-dioxopiperidin-3-yl)-1-oxoisoindoline-5-carboxamide], for which the DC50 was 100 to 500 nM and the Y entry is “** (a Y value (shown as**) of 20%<Y≤35%)”.

For `O=C1CCC(N2Cc3cc(C(=O)N[C@H](c4c(F)cccc4Cl)C(F)(F)F)ccc3C2=O)C(=O)N1` (stereo partly drawn) [Example 151, N-((R)-1-(2-chloro-6-fluorophenyl)-2,2,2-trifluoroethyl)-2-(2,6-dioxopiperidin-3-yl)-1-oxoisoindoline-5-carboxamide], the DC50 was less than 100 nM and the Y result is recorded as “* (a Y value (shown as *) of 0<Y≤20%)”.

On to `O=C1CCC(N2Cc3cc(C(=O)N[C@H](c4cccc(F)c4Cl)C(F)(F)F)ccc3C2=O)C(=O)N1` (stereo partly drawn) [Example 152, N-((R)-1-(2-chloro-3-fluorophenyl)-2,2,2-trifluoroethyl)-2-(2,6-dioxopiperidin-3-yl)-1-oxoisoindoline-5-carboxamide], for which the DC50 was less than 100 nM and the Y entry is “* (a Y value (shown as *) of 0<Y≤20%)”.

`O=C1CCC(N2Cc3c(ccc(C(=O)N[C@H](c4ccc(F)cc4)C(F)(F)F)c3Cl)C2=O)C(=O)N1` (stereo partly drawn) [Example 153, 4-chloro-2-(2,6-dioxopiperidin-3-yl)-1-oxo-N-((R)-2,2,2-trifluoro-1-(4-fluorophenyl)ethyl)isoindoline-5-carboxamide]: the DC50 fell in the range of 100 to 500 nM and the Y result is listed as “** (a Y value (shown as**) of 20%<Y≤35%)”.

As for `CC(C)[C@H](NC(=O)c1ccc2c(c1)CN(C1CCC(=O)NC1=O)C2=O)c1ccccc1` (stereo partly drawn) [Example 154, 2-(2,6-dioxopiperidin-3-yl)-N-((S)-2-methyl-1-phenylpropyl)-1-oxoisoindoline-5-carboxamide], the DC50 was less than 100 nM and the Y result is reported as “* (a Y value (shown as *) of 0<Y≤20%)”.

`O=C1CCC(N2Cc3cc(C(=O)N[C@H](c4ccccc4CN4CCOCC4)C(F)(F)F)ccc3C2=O)C(=O)N1` (stereo partly drawn) [Example 155, 2-(2,6-dioxopiperidin-3-yl)-1-oxo-N-((R)-2,2,2-trifluoro-1-(2-(morpholinomethyl)phenyl)ethyl)isoindoline-5-carboxamide]: the DC50 is less than 100 nM and the Y entry is given as “* (a Y value (shown as *) of 0<Y≤20%)”.

On to `C[C@]1(O)CC[C@H]([C@@H](NC(=O)c2ccc3c(c2)CN(C2CCC(=O)NC2=O)C3=O)C(F)(F)F)CC1` (stereo partly drawn) [Example 156, 2-(2,6-dioxopiperidin-3-yl)-1-oxo-N-((R)-2,2,2-trifluoro-1-((1r,4R)-4-hydroxy-4-methylcyclohexyl)ethyl)isoindoline-5-carboxamide], for which the DC50 fell in the range of 100 to 500 nM and the Y entry was “* (a Y value (shown as *) of 0<Y≤20%)”.

One may read the DC50 as the concentration giving 50% degradation. A higher DC50 goes with degradation only at high concentration.
